Assay results from patent US12533357B2, “Treatment for acute myeloid leukemia or myelodysplastic syndrome” (UNIVERSITY HEALTH NETWORK, priority 2019, dated 2026).
pIC50: −log10 of the molar value.

How the values were obtained:
HL-60 = test: In vitro cytotoxicity (IC50) assay, alamarBlue; type: cell-based; conditions: HL-60, AML M2
Experimental: (§1) Cells were seeded in triplicate at 10,000 per 80 uL, into 96-well plates 24 hours before compound overlay and cultured at 37° C. and 5% CO2. Compound (I) was prepared as a 10 mM stock in 100% DMSO and diluted with RPMI 1640 cell growth medium containing 10% FBS such that the final concentrations ranged from 50 pM to 15 uM. Aliquots (20 uL) from each concentration were overlaid to 80 uL of pre-seeded cells to achieve final concentrations of 10 pM to 3 uM. After 3 days, cell viability in each well was assessed by alamarBlue assay according to the manufacturer's instruction (ThermoFisher Scientific). Absorbance was read at 570 nm using a SpectraPlus microplate reader (Molecular Devices Corporation). alamarBlue absorbance values were adjusted by subtracting the average of the baseline readings from untreated cells assessed one day after cell seeding. The percentage (%) of relative inhibition of cell viability was calculated by comparing to DMSO-treated cells. IC50s were calculated using GraphPad PRISM software (GraphPad Software Inc.).

JURKAT = test: In vitro cytotoxicity (IC50) assay, alamarBlue; type: cell-based; conditions: T-ALL
Experimental: as §1

KOPN-8 = test: In vitro cytotoxicity (IC50) assay, alamarBlue; type: cell-based; conditions: KOPN-8, B-ALL
Experimental: as §1

NALM-6 = test: In vitro cytotoxicity (IC50) assay, alamarBlue; type: cell-based; conditions: NALM-6, B-ALL
Experimental: as §1

OCI-AML3 = test: In vitro cytotoxicity (IC50) assay, alamarBlue; type: cell-based; conditions: OCI-AML3, AML M4
Experimental: as §1

OCI-LY10 = test: In vitro cytotoxicity (IC50) assay, alamarBlue; type: cell-based; conditions: OCI-LY10, NHL ABC-DLBCL
Experimental: as §1

OCI-LY3 = test: In vitro cytotoxicity (IC50) assay, alamarBlue; type: cell-based; conditions: OCI-LY3, NHL ABC-DLCBL
Experimental: as §1

OCI-LY8 = test: In vitro cytotoxicity (IC50) assay, alamarBlue; type: cell-based; conditions: OCI-LY8, NHL GCB-DLBCL
Experimental: as §1

RAJI = test: In vitro cytotoxicity (IC50) assay, alamarBlue; type: cell-based; conditions: NHL B-Cell Burkitt
Experimental: as §1

SU-DHL-8 = test: In vitro cytotoxicity (IC50) assay, alamarBlue; type: cell-based; conditions: SU-DHL-8, NHL DLBCL
Experimental: as §1

TF-1 = test: In vitro cytotoxicity (IC50) assay, alamarBlue; type: cell-based; conditions: TF-1, AML M6
Experimental: as §1

THP-1 = test: In vitro cytotoxicity (IC50) assay, alamarBlue; type: cell-based; conditions: THP-1, AML M5
Experimental: as §1

MOLT-4 = test: In vitro cytotoxicity (IC50) assay, alamarBlue; type: cell-based, human; conditions: MOLT-4, T-ALL
Experimental: as §1

MV4-11 = test: In vitro cytotoxicity (IC50) assay, alamarBlue; type: cell-based, human; conditions: MV4-11, AML M5
Experimental: as §1

[1] = test system: MV4-11 acute myeloid leukemia xenograft; test: MV4-11 xenograft tumor growth in SCID mice; type: in vivo; conditions: for tumor response by day 10: fumarate
Experimental: The human acute myeloid leukemia cell line MV4-11 was acquired from American Type Culture Collection (Manassas, VA, USA) and grown in RPMI medium containing 100 units/mL penicillin G sodium, 100 μg/mL streptomycin sulfate. The media was supplemented with 10% heat-inactivated fetal bovine serum, 2 mM L-glutamine, and 0.11% sodium pyruvate. The tumor cells were maintained in a humidified environment of 5% CO2 and 95% air at 37° C. Cells were verified to be free of mouse pathogens by IMPACT IV PCR analysis (IDEXX RADIL, Colombia, MO, USA) before injection.
Female SCID mice were purchased from the Ontario Cancer Institute and received and acclimated at the MaRS-TMDT Animal Resources Centre for 2 weeks prior to the start of the experiment. The mice were fed ad libitum autoclaved water and Rodent Lab Diet (Harlan Teklad LM-485) consisting of 19% crude protein, 5% crude fat, and 5% crude fiber. Mice were housed in microisolator cages and maintained in an environment with a 12-hour light cycle at 20-22° C. and 40-60% humidity. On the day of implantation, MV4-11 cells were harvested and resuspended with serum free DMEM to a concentration of 1×10^8/mL and each mouse was injected subcutaneously with a volume of 0.1 mL containing 1×10^7 MV4-11 cells in the right rear flank.
Animals were dosed Compound (I) via oral gavage in a volume of 10 ml/kg. The animals were dosed with a 2.25 mm×50 mm curved gavage needle affixed to a 1 ml syringe. Vincristine was dosed by IP injection once per week.
Toxicity was evaluated by body weight measurements and clinical observations. The mice were observed daily for overt signs of any adverse, treatment related side effects, and clinical signs of toxicity. Acceptable toxicity was set at a group mean body weight loss of less than 20% during the study and not more than one treatment related death in a group. Animals were monitored for body weights and tumor growth where tumor volumes were calculated using the formula: tumor volume=width^2×length/2.
The study evaluated Compound (I) fumarate administered by oral gavage, either daily at 7.5 mg/kg or 2 days on/5 days off at 13.5 mg/kg, in comparison to the standard-of-care agent vincristine, dosed in 4 weekly intraperitoneal injections of 0.5 mg/kg, in the MV4-11 acute myeloid leukemia xenograft model in SCID (severe combined immunodeficiency) mice. Xenografts were established by subcutaneously injecting 1×10^7 tumor cells into the right flank of female SCID mice. Treatment was initiated 14 days following implantation when tumor volumes reached a mean volume of approximately 90 mm^3. […] Animals were dosed in the 2-on/5-off schedule for 21 days. […] By day 13, the average volume of the control tumors was 878 mm^3, averaging […] tumor growth over the 13 days. On day 13 the average tumor growth inhibition in the vincristine treated arm was 85% (p=0.14).

[2] = Homo sapiens, 72 h, 3 days, read-out: Compound (I) IC50

COc1ccc2c(c1)[C@]1(C[C@H]1c1ccc3c(/C=C/c4ccc(CN5C[C@@H](C)O[C@@H](C)C5)cc4)n[nH]c3c1)C(=O)N2 [Compound (I), (1R,2S)-2-(3-((E)-4-(((2S,6R)-2,6-dimethylmorpholino)methyl)styryl)-1H-indazol-6-yl)-5′-methoxyspiro[cyclopropane-1,3′-indolin]-2′-one]
Response to Compound (I) (HL-60): death | pIC50 (HL-60; [2]): 8.08 | pIC50 (JURKAT; [2]): 9.22 | Response to Compound (I) (JURKAT): death | pIC50 (KOPN-8; [2]): 9.15 | Response to Compound (I) (KOPN-8): death | Response to Compound (I) (NALM-6): mitotic defects + | Response to Compound (I) (OCI-AML3): mitotic defects + | pIC50 (OCI-LY10; [2]): 8.17 | Response to Compound (I) (OCI-LY10): death | Response to Compound (I) (OCI-LY3): mitotic defects + | Response to Compound (I) (OCI-LY8): mitotic defects + | pIC50 (RAJI; [2]): 10.00 | Response to Compound (I) (RAJI): death | pIC50 (SU-DHL-8; [2]): 7.92 | Response to Compound (I) (SU-DHL-8): death | pIC50 (TF-1; [2]): 8.66 | Response to Compound (I) (TF-1): death | pIC50 (THP-1; [2]): 8.85 | Response to Compound (I) (THP-1): death | pIC50 (MOLT-4; [2]): 8.39 | Response to Compound (I) (MOLT-4): death | pIC50 (MV4-11; [2]): 8.24 | Response to Compound (I) (MV4-11): death | animals remained tumor-free until ([1]; 2 days-on/5 days-off arm, 13.5 mg/kg): 24 days | overall efficacy in MV4-11 xenograft model ([1]; SCID mice): very efficacious and potentially curative | animals remained tumor-free until ([1]; daily dosing arm, 7.5 mg/kg): 74 days | animals tumor free until last measurement time point ([1]; daily dosing arm, Day 128): Four of 6 | tumor response by day 10 ([1]; oral 13.5 mg/kg 2-on/5-off): completely regressed tumors | tumor response by day 10 ([1]; oral daily 7.5 mg/kg): completely regressed tumors | toxicity: reason daily dosing was halted ([1]; oral daily 7.5 mg/kg, halted after 14 days): excessive body weight loss
